Legend:
Influenza A virus [1] = assay type: functional, organism-based
Influenza A virus [2] = assay: microbe, parasite or virus in culture; assay type: functional, organism-based; details: A/WSN/1933(H1N1), MDCK, 72 h

| SMILES | EC50 (Influenza A virus [1]) | EC50 (Influenza A virus [2]) |
| --- | --- | --- |
| CC(C)N1CN(C(c2ccccc2)c2ccccc2)n2ccc(=O)c(O)c2C1=O | 0.0804 µM | 0.165 µM |
| CC(C)N1C[C@H](C(c2ccccc2)c2ccccc2)n2ccc(=O)c(O)c2C1=O | 0.0892 µM | 0.155 µM |
